Reference: patent US20240391930A1, “SPIROCYCLIC BICYCLIC MODULATORS OF CHOLESTEROL BIOSYNTHESIS AND THEIR USE FOR PROMOTING REMYELINATION” (GENENTECH, INC., priority 2021, published 2024)
pEC50: −log10 of the molar value.

What was measured:
[1] = system: zymostenol accumulation in EpiSC-derived OPCs (EBP); experiment: GC/MS-based sterol profiling (zymostenol accumulation); format: cell-based; settings: Mus musculus, 24 hours, 8 doses from 0.15 nM to 333 nM, read-out: Zymostenol GCMS EC50
How it was run: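 Mouse epiblast stem cell-derived OPCs plated at 100,000 cells/well in growth-factor-free N2B27 and treated 24 h. Sterols extracted by modified Folch wash, silylated with BSTFA, and quantified by electron-impact GC/MS against cholesterol-d7 (zymostenol ion 458). Zymostenol normalised to 24 h 100 nM positive-control reference.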

[2] = system: EpiSC-derived OPCs; experiment: In vitro phenotypic screening of OPCs (MBP high-content imaging); format: cell-based; settings: Mus musculus, 72 h; percentage of MBP-positive oligodendrocytes, 3 days, 0.5 nM to 1000 nM; read-out: OPC EC50
How it was run: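 Mouse EpiSC-derived OPCs seeded at 150,000/cm^2 without growth factors, treated 3 days at 37° C with 8-point doses from 1000 nM to 0.5 nM. Fixed, MBP immunostained with DAPI; high-content imaging gives percentage MBP-positive oligodendrocytes.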

Structure (SMILES)	pEC50 [1]	pEC50 [2]
CC(C)n1nc(-c2cncc(C(F)(F)F)c2)nc1[C@H]1[C@@H]2C[C@H](N3CCC4(C3)CS(=O)(=O)C4)C[C@@H]21 (single isomer, unassigned) [Compound 17]	7.38	6.38
CC(C)n1nc(-c2ccc(C(F)(F)F)cc2)cc1[C@H]1[C@@H]2C[C@H](N3CCC4(C3)CS(=O)(=O)C4)C[C@@H]21 [Compound 5, 6-((1R,3r,5S,6r)-6-(1-Isopropyl-3-(4-(trifluoromethyl)phenyl)-1H-pyrazol-5-yl)bicyclo[3.1.0]hexan-3-yl)-2-thia-6-azaspiro[3.4]octane 2,2-dioxide]	8.44	8.10
CC(C)n1nc(-c2cncc(C(F)(F)F)c2)nc1[C@H]1[C@@H]2C[C@@H](N3CCC4(C3)CS(=O)(=O)C4)C[C@@H]21 (single isomer, unassigned) [Compound 16]	8.17	7.62
CC(C)n1nc(C2(C(F)(F)F)CC2)cc1[C@H]1[C@@H]2C[C@H](N3CCC4(C3)CS(=O)(=O)C4)C[C@@H]21 [Compound 32, 6-((1R,3r,5S,6r)-6-(1-Isopropyl-3-(1-(trifluoromethyl)cyclopropyl)-1H-pyrazol-5-yl)bicyclo[3.1.0]hexan-3-yl)-2-thia-6-azaspiro[3.4]octane 2,2-dioxide]	8.28	7.54
CC(C)n1nc(-c2cncc(C(F)(F)F)c2)cc1[C@H]1[C@@H]2C[C@H](N3CC4(C3)CS(=O)(=O)C4)C[C@@H]21 (single isomer, unassigned) [Compound 99*]	7.07	6.52
CC(C)n1nc(-c2cnc(C(F)(F)F)nc2)cc1[C@H]1[C@@H]2C[C@H](N3CCC4(C3)CS(=O)(=O)C4)C[C@@H]21 [Compound 6, 6-((1R,3r,5S,6r)-6-(1-Isopropyl-3-(2-(trifluoromethyl)pyrimidin-5-yl)-1H-pyrazol-5-yl)bicyclo[3.1.0]hexan-3-yl)-2-thia-6-azaspiro[3.4]octane 2,2-dioxide]	7.54	6.70
CC(C)n1nc(-c2cccc(C(F)(F)F)n2)cc1[C@H]1[C@@H]2C[C@H](N3CCC4(CC3)CS(=O)(=O)C4)C[C@@H]21 (single isomer, unassigned) [Compound 48]	8.00	7.82
CC(C)n1nc(-c2cncc(C(F)(F)F)c2)cc1[C@H]1[C@@H]2C[C@H](N3CCC4(CC3)CS(=O)(=O)C4)C[C@@H]21 (single isomer, unassigned) [Compound 40]	8.23	7.82
CC(C)n1nc(C(F)(F)F)cc1[C@H]1[C@@H]2C[C@@H](N3CCC4(C3)CS(=O)(=O)C4)C[C@@H]21 (single isomer, unassigned) [Compound 22]	7.92	7.28
CC(C)n1nc(-c2cccc(C(F)(F)F)n2)cc1[C@H]1[C@@H]2C[C@@H](N3CCC4(C3)CS(=O)(=O)C4)C[C@@H]21 (single isomer, unassigned) [Compound 11]	8.14	7.85
CC(C)n1nc(C(F)(F)F)cc1[C@H]1[C@@H]2C[C@H](N3CCC4(C3)CS(=O)(=O)C4)C[C@@H]21 (single isomer, unassigned) [Compound 23]	7.92	7.28
C=C(c1cc([C@H]2[C@@H]3C[C@H](N4CCC5(C4)CS(=O)(=O)C5)C[C@@H]32)n(C(C)C)n1)C(F)(F)F [Compound 31, 6-((1R,3r,5S,6r)-6-(1-Isopropyl-3-(3,3,3-trifluoroprop-1-en-2-yl)-1H-pyrazol-5-yl)bicyclo[3.1.0]hexan-3-yl)-2-thia-6-azaspiro[3.4]octane 2,2-dioxide]	8.15	7.52
CC(C)n1nc(-c2cncc(C(F)(F)F)c2)cc1[C@H]1[C@@H]2C[C@@H](N3CC4(C3)CS(=O)(=O)C4)C[C@@H]21 (single isomer, unassigned) [Compound 98*]	7.26	6.52
CC(C)n1nc(-c2ccnc(C(F)(F)F)n2)cc1[C@H]1[C@@H]2C[C@H](N3CCC4(CC3)CS(=O)(=O)C4)C[C@@H]21 (single isomer, unassigned) [Compound 50]	7.70	7.16
CC(C)n1nc(-c2cccc(C(F)(F)F)n2)cc1[C@H]1[C@@H]2C[C@H](N3CCC4(C3)CS(=O)(=O)C4)C[C@@H]21 (single isomer, unassigned) [Compound 12]	8.43	8.01
CC(C)n1nc(-c2ccnc(C(F)(F)F)n2)cc1[C@H]1[C@@H]2C[C@@H](N3CCC4(C3)CS(=O)(=O)C4)C[C@@H]21 [Compound 28, 6-((1R,3s,5S,6r)-6-(1-isopropyl-3-(2-(trifluoromethyl)pyrimidin-4-yl)-1H-pyrazol-5-yl)bicyclo[3.1.0]hexan-3-yl)-2-thia-6-azaspiro[3.4]octane 2,2-dioxide]	8.22	7.41

Now those with a higher pEC50 [1], led by results:

pEC50 [1]	pEC50 [2]	Structure (SMILES)
8.74	8.03	CCn1nc(-c2cncc(C(F)(F)F)c2)cc1[C@H]1[C@@H]2C[C@@H](N3CCC4(C3)CS(=O)(=O)C4)C[C@@H]21 (single isomer, unassigned) [Compound 24]
8.64	7.82	CC(C)n1nc(-c2ccnc(C(F)(F)F)c2)cc1[C@H]1[C@@H]2C[C@@H](N3CCC4(C3)CS(=O)(=O)C4)C[C@@H]21 (single isomer, unassigned) [Compound 18]
8.60	7.89	CC(C)n1nc(-c2ccnc(C(F)(F)F)c2)cc1[C@H]1[C@@H]2C[C@H](N3CCC4(C3)CS(=O)(=O)C4)C[C@@H]21 (single isomer, unassigned) [Compound 19]
8.57	8.34	CC(C)n1nc(-c2ccnc(C(F)(F)F)n2)cc1[C@H]1[C@@H]2C[C@@H](N3CCC4(CC3)CS(=O)(=O)C4)C[C@@H]21 (single isomer, unassigned) [Compound 49]
8.72	8.77	CC(C)n1nc(-c2cccc(C(F)(F)F)n2)cc1[C@H]1[C@@H]2C[C@@H](N3CCC4(CC3)CS(=O)(=O)C4)C[C@@H]21 (single isomer, unassigned) [Compound 47]
8.92	7.41	CC(C)n1nc(-c2cc(C(F)(F)F)ccn2)cc1[C@H]1[C@@H]2C[C@@H](N3CCC4(C3)CS(=O)(=O)C4)C[C@@H]21 (single isomer, unassigned) [Compound 20]
8.49	8.18	CC(C)n1nc(-c2ccnc(C(F)(F)F)n2)cc1[C@H]1[C@@H]2C[C@H](N3CCC4(C3)CS(=O)(=O)C4)C[C@@H]21 [Compound 15, 6-((1R,3r,5S,6r)-6-(1-Isopropyl-3-(2-(trifluoromethyl)pyrimidin-4-yl)-1H-pyrazol-5-yl)bicyclo[3.1.0]hexan-3-yl)-2-thia-6-azaspiro[3.4]octane 2,2-dioxide]
8.52	7.85	CC(C)n1nc(-c2cncc(C(F)(F)F)c2)cc1[C@H]1[C@@H]2C[C@H](N3CCC4(C3)CS(=O)(=O)C4)C[C@@H]21 (single isomer, unassigned) [Compound 4]
8.51	8.18	CC(C)n1nc(-c2cc(C(F)(F)F)ccn2)cc1[C@H]1[C@@H]2C[C@H](N3CCC4(C3)CS(=O)(=O)C4)C[C@@H]21 (single isomer, unassigned) [Compound 21]
8.74	9.05	CC(C)n1nc(-c2cccc(C(F)(F)F)c2)cc1[C@H]1[C@@H]2C[C@@H](N3CCC4(C3)CS(=O)(=O)C4)C[C@@H]21 (single isomer, unassigned) [Compound 2]
8.54	8.31	CC(C)n1nc(-c2cncc(C(F)(F)F)c2)cc1[C@H]1[C@@H]2C[C@@H](N3CCC4(CC3)CS(=O)(=O)C4)C[C@@H]21 (single isomer, unassigned) [Compound 38]
8.57	8.42	CC(C)n1nc(-c2cncc(C(F)(F)F)c2)cc1[C@H]1[C@@H]2C[C@H](N3CC[C@@]4(CCS(=O)(=O)C4)C3)C[C@@H]21 (single isomer, unassigned) [Compound 9*]
9.44	8.38	CCn1nc(-c2cncc(C(F)(F)F)c2)cc1[C@H]1[C@@H]2C[C@H](N3CCC4(C3)CS(=O)(=O)C4)C[C@@H]21 (single isomer, unassigned) [Compound 25]
